Source: ChEMBL document CHEMBL4765277, “Design, synthesis and biological evaluation of novel indazole-based derivatives as potent HDAC inhibitors via fragment-based virtual screening” (Eur J Med Chem, 2020)

Columns and labels:
[1] = target: Histone deacetylase 1 (Homo sapiens, UniProt Q13547); test: Inhibition of recombinant human C-terminal His/FLAG-tagged HDAC1 (1 to end residues) expressed in sf9 insect cells using Boc-Lys(Ac)-AMC as substrate incubated for 60 mins by fluorescence assay
[2] = target: Histone deacetylase 2 (Homo sapiens, UniProt Q92769); test: Inhibition of recombinant human C-terminal His-tagged HDAC2 (1 to end residues) expressed in sf9 insect cells using Boc-Lys(Ac)-AMC as substrate incubated for 60 mins by fluorescence assay
Sequence of Histone deacetylase 2 (Q92769 whole entry): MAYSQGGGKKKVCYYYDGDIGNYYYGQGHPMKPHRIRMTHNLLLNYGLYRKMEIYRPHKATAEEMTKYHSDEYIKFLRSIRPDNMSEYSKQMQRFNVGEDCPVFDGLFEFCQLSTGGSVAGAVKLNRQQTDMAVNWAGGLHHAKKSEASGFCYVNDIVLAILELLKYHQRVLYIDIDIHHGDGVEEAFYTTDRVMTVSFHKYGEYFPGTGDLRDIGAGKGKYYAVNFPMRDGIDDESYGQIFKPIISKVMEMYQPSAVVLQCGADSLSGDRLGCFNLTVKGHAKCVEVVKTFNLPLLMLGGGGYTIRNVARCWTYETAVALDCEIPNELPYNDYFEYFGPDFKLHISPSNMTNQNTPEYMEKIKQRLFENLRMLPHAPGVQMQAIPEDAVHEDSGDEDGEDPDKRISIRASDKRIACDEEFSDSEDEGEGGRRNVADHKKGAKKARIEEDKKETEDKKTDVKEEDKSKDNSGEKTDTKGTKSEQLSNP

[3] = target: T1, Histone deacetylase 8 (Homo sapiens, UniProt Q9BY41); test: Inhibition of recombinant human full length C-terminal His-tagged HDAC8 expressed in sf9 insect cells using Boc-Lys(TFA)-AM as substrate incubated for 60 mins by fluorescence assay
T1 sequence (Q9BY41 whole entry): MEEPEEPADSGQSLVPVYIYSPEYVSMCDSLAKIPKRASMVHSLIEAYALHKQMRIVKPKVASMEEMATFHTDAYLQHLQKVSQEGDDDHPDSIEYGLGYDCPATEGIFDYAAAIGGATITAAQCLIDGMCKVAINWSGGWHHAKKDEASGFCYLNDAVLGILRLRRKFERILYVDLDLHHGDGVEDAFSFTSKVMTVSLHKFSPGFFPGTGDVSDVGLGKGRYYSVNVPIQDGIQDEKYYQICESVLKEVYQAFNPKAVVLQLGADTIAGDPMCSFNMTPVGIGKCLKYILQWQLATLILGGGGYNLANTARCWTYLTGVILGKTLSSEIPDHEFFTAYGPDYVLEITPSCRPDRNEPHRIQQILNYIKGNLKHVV

[4] = test system: HCT-116; test: Antiproliferative activity against human HCT-116 cells assessed as reduction in cell viability after 72 hrs by MTT assay; format: functional, cell-based; conditions: HCT-116, 72 h
[5] = test system: HeLa; test: cells; format: functional, cell-based; conditions: Homo sapiens, 72 h
Description: Antiproliferative activity against human HeLa cells assessed as reduction in cell viability after 72 hrs by MTT assay

[6] = test system: MCF7; test: cells; conditions: Homo sapiens, MCF7, 72 h
Description: Antiproliferative activity against human MCF7 cells assessed as reduction in cell viability after 72 hrs by MTT assay

Sequence of Histone deacetylase 1 (Q13547 whole entry): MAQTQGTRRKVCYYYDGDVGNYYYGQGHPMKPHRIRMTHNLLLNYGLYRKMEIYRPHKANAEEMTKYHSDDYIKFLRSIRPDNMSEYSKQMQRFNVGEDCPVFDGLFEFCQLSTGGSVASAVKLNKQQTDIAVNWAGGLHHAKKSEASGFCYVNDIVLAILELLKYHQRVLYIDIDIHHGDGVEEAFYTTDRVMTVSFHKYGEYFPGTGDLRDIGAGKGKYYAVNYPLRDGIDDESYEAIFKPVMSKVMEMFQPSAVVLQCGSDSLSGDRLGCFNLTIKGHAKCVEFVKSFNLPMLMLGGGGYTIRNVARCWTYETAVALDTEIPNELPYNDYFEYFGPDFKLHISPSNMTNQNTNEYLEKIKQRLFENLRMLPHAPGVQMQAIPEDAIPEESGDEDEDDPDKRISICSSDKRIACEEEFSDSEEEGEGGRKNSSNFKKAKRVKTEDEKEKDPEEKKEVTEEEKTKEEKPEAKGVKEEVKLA

O=C(CCCCCCC(=O)Nc1n[nH]c2cc(-c3cccc(C(F)(F)F)c3)ccc12)NO
IC50 [1]: 2.5 nM
IC50 [2]: 5 nM
IC50 [3]: 4.1 nM
IC50 [4]: 2900 nM
IC50 [5]: 6000 nM
IC50 [6]: 47300 nM

O=C(CCCCCCC(=O)Nc1n[nH]c2cc(-c3ccncc3)ccc12)NO
IC50 [1]: 23 nM
IC50 [2]: 25.9 nM
IC50 [3]: 24.5 nM
IC50 [4]: 12300 nM
IC50 [5]: 6900 nM
IC50 [6]: 40100 nM

O=C(CCCCCCC(=O)Nc1n[nH]c2cc(-c3cccc(Cl)c3)ccc12)NO
IC50 [1]: 3.7 nM
IC50 [2]: 4 nM
IC50 [3]: 3.8 nM
IC50 [4]: 41800 nM
IC50 [5]: 200 nM
IC50 [6]: 27500 nM

O=C(CCCCCCC(=O)Nc1n[nH]c2cc(-c3ccccc3F)ccc12)NO
IC50 [1]: 1.8 nM
IC50 [2]: 4.4 nM
IC50 [3]: 2.4 nM
IC50 [4]: 4100 nM
IC50 [5]: 13800 nM
IC50 [6]: 2500 nM

COc1cccc(-c2ccc3c(NC(=O)CCCCCC(=O)NO)n[nH]c3c2)c1
IC50 [1]: 2.6 nM
IC50 [2]: 63 nM
IC50 [3]: 4.5 nM
IC50 [4]: 10600 nM
IC50 [5]: 20100 nM
IC50 [6]: 7400 nM

O=C(CCCCCCC(=O)Nc1n[nH]c2cc(-c3ccccc3Cl)ccc12)NO
IC50 [1]: 2.7 nM
IC50 [2]: 5.2 nM
IC50 [3]: 4 nM
IC50 [4]: 2600 nM
IC50 [5]: 8100 nM
IC50 [6]: 2200 nM

O=C(CCCCCCC(=O)Nc1n[nH]c2cc(-c3ccsc3)ccc12)NO
IC50 [1]: 36.2 nM
IC50 [2]: 31.6 nM
IC50 [3]: 32.5 nM
IC50 [4]: 7500 nM
IC50 [5]: 29500 nM
IC50 [6]: 8300 nM

COc1cccc(-c2ccc3c(NC(=O)CCCCCCC(=O)NO)n[nH]c3c2)c1
IC50 [1]: 1.9 nM
IC50 [2]: 3.9 nM
IC50 [3]: 3 nM
IC50 [4]: 8100 nM
IC50 [5]: 3000 nM
IC50 [6]: 19100 nM

COc1cccc(-c2ccc3c(NC(=O)C4CCC(C(=O)NO)CC4)n[nH]c3c2)c1 (stereo not drawn)
IC50 [1]: 2420 nM
IC50 [2]: 4630 nM
IC50 [3]: 3340 nM
IC50 [4]: 47400 nM
IC50 [5]: > 50000 nM
IC50 [6]: > 50000 nM

COc1cccc(-c2ccc3c(NC(=O)CCCCCCC(=O)NO)n[nH]c3n2)c1
IC50 [1]: 2.4 nM
IC50 [2]: 5.3 nM
IC50 [3]: 3.3 nM
IC50 [4]: 2700 nM
IC50 [5]: 3600 nM
IC50 [6]: 8600 nM

COc1cc(OC)cc(-c2ccc3c(NC(=O)CCCCCCC(=O)NO)n[nH]c3c2)c1
IC50 [1]: 4.6 nM
IC50 [2]: 4.8 nM
IC50 [3]: 4.4 nM
IC50 [4]: 9500 nM
IC50 [5]: 7300 nM
IC50 [6]: 55200 nM

COc1cccc(-c2ccc3c(NC(=O)CCCCC(=O)NO)n[nH]c3c2)c1
IC50 [1]: 13 nM
IC50 [2]: 62 nM
IC50 [3]: 41 nM
IC50 [4]: 23500 nM
IC50 [5]: 5800 nM
IC50 [6]: 4400 nM

CCOc1cccc(-c2ccc3c(NC(=O)CCCCCCC(=O)NO)n[nH]c3c2)c1
IC50 [1]: 2.1 nM
IC50 [2]: 4.2 nM
IC50 [3]: 3.4 nM
IC50 [4]: 4200 nM
IC50 [5]: 10800 nM
IC50 [6]: 2400 nM

COc1cccc(-c2ccc3c(NC(=O)CCCCCCC(=O)NO)n[nH]c3c2)c1F
IC50 [1]: 3.1 nM
IC50 [2]: 6 nM
IC50 [3]: 4.4 nM
IC50 [4]: 7600 nM
IC50 [5]: 9800 nM
IC50 [6]: 2000 nM

COc1ccc(-c2ccc3c(NC(=O)CCCCCCC(=O)NO)n[nH]c3c2)cc1OC
IC50 [1]: 3.4 nM
IC50 [2]: 4.6 nM
IC50 [3]: 3.2 nM
IC50 [4]: 14600 nM
IC50 [5]: 21300 nM
IC50 [6]: 10900 nM

COc1ccccc1-c1ccc2c(NC(=O)CCCCCCC(=O)NO)n[nH]c2c1
IC50 [1]: 4.6 nM
IC50 [2]: 5.4 nM
IC50 [3]: 4.2 nM
IC50 [4]: 2700 nM
IC50 [5]: 5900 nM
IC50 [6]: 5700 nM

COc1cccc(-c2ccc3c(NC(=O)CCCC(=O)NO)n[nH]c3c2)c1
IC50 [1]: 76 nM
IC50 [2]: 168 nM
IC50 [3]: 54 nM
IC50 [4]: > 50000 nM
IC50 [5]: > 50000 nM
IC50 [6]: 41500 nM

COc1ccc(F)c(-c2ccc3c(NC(=O)CCCCCCC(=O)NO)n[nH]c3c2)c1
IC50 [1]: 3 nM
IC50 [2]: 3.5 nM
IC50 [3]: 4.9 nM
IC50 [4]: 7500 nM
IC50 [5]: 3300 nM
IC50 [6]: 4900 nM
